For assay [1], the target named is T1, human PPARα (Homo sapiens, UniProt Q07869).
T1 construct: expressed in transfected cells; host or cells: COS-7 monkey kidney cells (ATCC CRL-1651)
T1 sequence (Q07869 192-468 limits assumed): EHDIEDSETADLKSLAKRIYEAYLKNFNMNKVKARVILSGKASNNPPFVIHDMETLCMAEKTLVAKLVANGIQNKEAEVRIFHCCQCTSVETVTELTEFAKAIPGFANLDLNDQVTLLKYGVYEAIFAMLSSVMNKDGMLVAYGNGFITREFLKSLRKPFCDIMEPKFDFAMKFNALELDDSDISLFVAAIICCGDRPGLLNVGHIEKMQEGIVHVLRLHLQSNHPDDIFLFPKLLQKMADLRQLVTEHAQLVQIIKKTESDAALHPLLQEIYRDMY
The assay can be described thus: PPARα activation, PPRE-controlled luciferase reporter in transfected COS-7 cells. The settings on record: 24 hours. Format: cell-based. As for the experimental part:
To investigate whether macelignan acts as a ligand of PPAR or not, it was tested according to known method (Cell, 68: 879-887, 1992; J. Biol. Chem., 272: 25252-25259, 1997) using a plasmid expressing PPAR and a vector having PPRE-controlled luciferase genes.
Activation of luciferase expression was measured by transfecting COS-7 monkey kidney cells (ATCC CRL-1651) with the PPARα plasmid and pFR-luciferase vector (Stratagene, USA), and then by treating the transfected cells with macelignan isolated from Example 1 for 24 hours. The PPARα plasmid was obtained by isolating polynucleotide encoding the amino acid sequence of amino acids […] (i.e. PPARα ligand-bound domain of the total amino acid sequence of human PPARα (Genbank Acession No. S74349)) with the primers of SEQ ID NO: 1 ([…]) and SEQ ID NO: 2 (TGGGGTACCTGGCTGAT) by RT-PCR. Then, the polynucleotide was cloned between the restriction enzyme sites of BamHI and KpnI of pFA vector (Stratagene, USA). Herein, mRNA used as the template in RT-PCR was obtained by separating the total RNA in cultured Hep G2 (ATCC HB-8065) human liver cells by using TRIZOL (Invitrogen, USA). RT-PCR was performed by synthesizing cDNA using reverse transcriptase at 42° C. for 60 minutes, and 30 cycles of 1 minute at 95° C., 30 seconds at 54° C. and 2 minutes at 72° C. using Taq polymerase. At this time, the test groups treated with different concentrations (1, 5, 10 and 25 μM) of macelignan according to the present invention were compared to the control treated with 0.01% DMSO, and to the groups treated with different concentrations (1, 5, 10 and 25 μM) of Wy-14643 (Sigma, USA), a compound known as a PPARα ligand.

For assay [2], the system named is target genes of PPARα (CD36, ACO, CPT-1). The assay can be described thus: Expression of target genes of PPARα in liver tissue of obesity/diabetes mouse model. The assay is classed as in vivo. The following applies: 5, 10 and 25 mg/kg oral, 14 days, db/db mice, p<0.05 vs control. The method, then: Liver tissue was removed from the test groups and the controls treated by oral administration in Examples 5˜8. The liver tissue was homogenized in liquid nitrogen and the total RNA was isolated from the tissues by using TRIZOL (Invitrogen, USA). The total RNA isolated as described above was determined and cDNA was synthesized by using reverse transcriptase at 42° C. for 20 minutes with same amount of RNA. The cDNA was subjected to RT-PCR by repeating 30 cycles of 95° C./1 minute, 56° C./30 seconds and 72° C./2 minutes with the following primers and Taq polymerase: primers for CD36 amplification (SEQ ID NO: 5 and SEQ ID NO: 6), primers for ACO amplification (SEQ ID NO: 11 and SEQ ID NO: 12), and primers for CPT-1 amplification (SEQ ID NO: 7 and SEQ ID NO: 8). Expression of the genes was determined by real-time PCR.

Assay [3] concerns target genes of PPARγ (LPL, PEPCK). Put plainly: Expression of target genes of PPARγ in 3T3-L1 pre-adipocytes (RT-PCR). Format: cell-based, mouse. The following applies: 3T3-L1 cells, 24 hours, then MDI medium two days, vs control. The method, then:
3T3-L1 mouse pre-adipocytes (ATCC CL-173) cultured in a DMEM medium containing 10% FBS were pipetted into a multi-well plate in a cell count of 1×10^6 cells per well, and then further cultured for 5 hours. To the medium of the cultured cells, 10 μM of macelignan was added and then left for 24 hours. Adipocyte differentiation was induced by substituting the medium of the cultured cells with MDI (0.5 mM 3-isobutyl-1-methylxanthine, 0.5 uM dexamethasone, 10 ug/ml insulin) medium (Am. J. Physiol. Cell Physiol., 280: C807-C813, 2001). Cells were collected two days after the substitution of MDI medium, and the total RNA was isolated by using TRIZOL (Invitrogen, USA). The total RNA isolated as described above was determined, and cDNA was synthesized by using reverse transcriptase at 42° C. for 20 minutes with same amount of RNA. The cDNA was subjected to RT-PCR by repeating 30 cycles of 95° C./1 minute, 56° C./30 seconds and 72° C./2 minutes with the following primers and Taq polymerase: primers for LPL amplification (SEQ ID NO: 13([…]) and SEQ ID NO: 14([…])), and primers for PEPCK amplification (SEQ ID NO: 15(CAGGCGGCTGAA GAAGTATGA) and SEQ ID NO: 16([…])).

The subject of assay [4] is obesity/diabetes mice (db/db mice). Put plainly: Anti-obesity effect in obesity/diabetes mouse model. The settings on record: for body weight / intramuscular triglyceride accumulation / white adipose tissue weight: 14th day, db/db mice. The assay is classed as in vivo. The method, then: To investigate the anti-obesity effect of macelignan, seven mice of 10 week-aged obesity/diabetes mice (db/db mice) were used per test group. To the test groups, macelignan suspended in […] carboxymethyl cellulose was orally administered in an administration dose of 5 mg/kg (body weight), 10 mg/kg (body weight) and 25 mg/kg (body weight), once per day at a predetermined time, for 14 days. As a control, 0.25% carboxymethyl cellulose was orally administered alone to normal mice in the same dose as administered to the test group. As another control, 0.25% carboxymethyl cellulose was orally administered alone to obesity/diabetes mice in the same dose as administered to the test group. As still another control, 10 mg/kg (body weight) of troglitazone was orally administered. From 6 days before the administration, diet intake and body weight of each obesity/diabetes mouse were measured once per three days. Additionally, on the 14th day after the oral administration, white adipose tissue weight and the amount of triglyceride accumulated in muscle cell were measured (Triglyceride measuring kit, Wako, No. 432-40201, Japan).

Consider `COc1cc(C[C@H](C)[C@H](C)Cc2ccc3c(c2)OCO3)ccc1O` (single isomer, unassigned) [macelignan], for which, in assay [1] (25 μM, control 0.01% DMSO), the “luciferase activity higher than the control (PPARα)” value is “about 14 times”. The PPARα activity entry in assay [1] (1, 5, 10 and 25 μM, p<0.01 vs control) was “increased PPARα activity in a concentration-dependent manner”. In assay [2], the “mRNA expression of CD36, ACO and CPT-1 in liver tissue” value was “significantly increased”. For the same compound, the “mRNA expression of LPL and PEPCK” value in assay [3] is recorded as “significantly increased”. The body weight in assay [4] (5 mg/kg oral) stood at 46.32 ± 2.31 g; in assay [4] (10 mg/kg oral), 43.8 ± 2.94 g; in assay [4] (25 mg/kg oral), 41.80 ± 1.56 g. Also, the intramuscular triglyceride accumulation came out at 24.7 ± 4.74 mg in assay [4] (5 mg/kg oral), 22.8 ± 5.76 mg in assay [4] (10 mg/kg oral) and 20.2 ± 3.82 mg in assay [4] (25 mg/kg oral). The white adipose tissue weight in assay [4] (5 mg/kg oral) came out at 4230 ± 284 mg; in assay [4] (10 mg/kg oral) it was 3900 ± 279 mg; in assay [4] (25 mg/kg oral), 2690 ± 154 mg. Besides, the diet intake entry in assay [4] (5, 10 and 25 mg/kg oral, 14 days, test groups vs controls) is “no significant difference”.

The values above are taken from patent US7902254B1, “Method for treating conditions mediated by PPAR using macelignan” (Newtree Co., Ltd., priority 2005, dated 2011).
